Experimental data from PubChem BioAssay AID330 (DTP/NCI, 2004).
Values joined by “and” are separate entries in the source; they are usually repeats but may differ in a detail not shown here. Equal entries are not always repeated. Toxic doses and inconclusive results are not listed. The calls were made as follows: active = survival T/C of 150% or more; inactive = T/C below 125% in these data.

System: P388 leukemia ip, CD2F1 mice, survival T/C
Assay: NCI In Vivo Anticancer Drug Screen. Data for tumor model P388 Leukemia (intraperitoneal) in CD2F1 (CDF1) mice
Settings: endpoint: median survival time, higher = longer survival
How it was run: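 Mice carrying the transplanted tumor received test compound or vehicle. Survival was recorded in each group, and the value is the treated-group measurement divided by that of the vehicle-treated control group.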

[1] = dose: 50.0 mg/kg/injection, schedule: Q01DX005 (ip), vehicle: Klucel (hydroxypropylcellulose) (HPC)
[2] = dose: 100.0 mg/kg/injection, schedule: Q01DX005 (ip), vehicle: Klucel (hydroxypropylcellulose) (HPC)
[3] = dose: 200.0 mg/kg/injection, schedule: Q01DX005 (ip), vehicle: Klucel (hydroxypropylcellulose) (HPC)
[4] = dose: 100.0 mg/kg/injection, schedule: Q01DX009 (ip), vehicle: saline with Tween-80
[5] = dose: 200.0 mg/kg/injection, schedule: Q01DX009 (ip), vehicle: saline with Tween-80
[6] = dose: 400.0 mg/kg/injection, schedule: Q01DX009 (ip), vehicle: saline with Tween-80
[7] = dose: 12.5 mg/kg/injection, schedule: Q01DX009 (ip), vehicle: saline with Tween-80
[8] = dose: 25.0 mg/kg/injection, schedule: Q01DX009 (ip), vehicle: saline with Tween-80
[9] = dose: 50.0 mg/kg/injection, schedule: Q01DX009 (ip), vehicle: saline with Tween-80
[10] = dose: 60.0 mg/kg/injection, schedule: Q01DX005 (ip), vehicle: saline with Tween-80
[11] = dose: 120.0 mg/kg/injection, schedule: Q01DX005 (ip), vehicle: saline with Tween-80
[12] = dose: 240.0 mg/kg/injection, schedule: Q01DX005 (ip), vehicle: saline with Tween-80
[13] = dose: 100.0 mg/kg/injection, schedule: Q04DX003 (ip), vehicle: saline with Tween-80
[14] = dose: 200.0 mg/kg/injection, schedule: Q04DX003 (ip), vehicle: saline with Tween-80
[15] = dose: 50.0 mg/kg/injection, schedule: Q01DX005 (ip), vehicle: saline with Tween-80
[16] = dose: 100.0 mg/kg/injection, schedule: Q01DX005 (ip), vehicle: saline with Tween-80
[17] = dose: 200.0 mg/kg/injection, schedule: Q01DX005 (ip), vehicle: saline with Tween-80

Measured: T/C

COc1cccc(C2OC3=C(Nc4ccc([N+](=O)[O-])cc4N3)C2=O)c1 (stereo not given)
inactive: [1] 102 % of control | [2] 101 % of control | [3] 96 % of control

NCCC(=O)CN
inactive: dose: 100.0 mg/kg/injection, schedule: Q04DX003 (ip), vehicle: saline 104 % of control | dose: 200.0 mg/kg/injection, schedule: Q04DX003 (ip), vehicle: saline 109 % of control | dose: 400.0 mg/kg/injection, schedule: Q04DX003 (ip), vehicle: saline 104 % of control

O=C(O)/C(=C\c1c(Cl)n(-c2ccccc2)c2ccccc12)NC(=O)c1ccccc1
inactive: dose: 100.0 mg/kg/injection, schedule: Q01DX001 (ip), vehicle: saline with Tween-80 92 % of control | dose: 200.0 mg/kg/injection, schedule: Q01DX001 (ip), vehicle: saline with Tween-80 88 % of control

O=C(O)C1(N(CCO)CCO)CCCC1
inactive: dose: 50.0 mg/kg/injection, schedule: Q01DX005 (ip), vehicle: saline 104 % of control | dose: 100.0 mg/kg/injection, schedule: Q01DX005 (ip), vehicle: saline 100 % of control | dose: 200.0 mg/kg/injection, schedule: Q01DX005 (ip), vehicle: saline 106 % of control

O=NN(CCCl)C(=O)Oc1ccc(OC(=O)N(CCCl)N=O)cc1
inactive: dose: 6.25 mg/kg/injection, schedule: Q01DX001 (ip), vehicle: Klucel (hydroxypropylcellulose) (HPC) 116 % of control | dose: 12.5 mg/kg/injection, schedule: Q01DX001 (ip), vehicle: Klucel (hydroxypropylcellulose) (HPC) 119 % of control

CC1CC(=O)C2(C)C1CC1CCC2(C)OC1(C)C (stereo not given)
inactive: [4] 100 % of control | [5] 102 % of control | [6] 100 % of control

CCCCCCCCCCCCCCCC(=O)NCC(=O)NC1CC(OC2CC(O)(C(C)=O)Cc3c(O)c4c(c(O)c32)C(=O)c2c(OC)cccc2C4=O)OC(C)C1O (stereo not given)
inactive: dose: 0.75 mg/kg/injection, schedule: Q01DX009 (ip), vehicle: other 100 % of control | dose: 1.5 mg/kg/injection, schedule: Q01DX009 (ip), vehicle: other 103 % of control | dose: 3.0 mg/kg/injection, schedule: Q01DX009 (ip), vehicle: other 118 % of control

Cc1ccc2c(=O)n(C)c(=O)n(C)c2n1
inactive: [7] 98 % of control | [8] 102 % of control | [9] 103 % of control | [4] 103 % of control

O=C(CCl)N1CCN(C(c2ccccc2)c2ccccc2)CC1
inactive: [10] 99 % of control | [11] 100 % of control | [12] 99 % of control

C=CC(=O)NCNC(=O)CCBr
active: [9] 186 % of control | [13] 150 % of control | [14] 159 % of control and 190 % of control | dose: 300.0 mg/kg/injection, schedule: Q04DX003 (ip), vehicle: saline with Tween-80 172 % of control
inactive: dose: 25.0 mg/kg/injection, schedule: Q04DX003 (ip), vehicle: saline with Tween-80 109 % of control

CCC(c1ccc(OC)cc1)C(CC)c1ccc(O)c(CN(C)C)c1 (stereo not given)
inactive: [10] 94 % of control | [11] 92 % of control | [12] 92 % of control

NCC(=O)NC(CSC(c1ccccc1)c1ccccc1)C(=O)NCC(=O)O (stereo not given)
inactive: [1] 102 % of control | [2] 103 % of control | [3] 96 % of control

CCCCCCCCCCCCCCCCc1c(C)nc(N(C)C)oc1=O
inactive: [10] 103 % of control | [11] 97 % of control | [12] 98 % of control and 100 % of control

COc1cc(C(CC(=O)O)CC(=O)O)cc(OC)c1OC
inactive: [15] 93 % of control | [16] 95 % of control | [17] 95 % of control

CN(N=O)C1=NC(C)(CCl)P(=O)(NNc2ncccn2)O1 (stereo not given)
inactive: dose: 60.0 mg/kg/injection, schedule: Q01DX005 (ip), vehicle: saline 108 % of control | dose: 120.0 mg/kg/injection, schedule: Q01DX005 (ip), vehicle: saline 110 % of control

Cc1c2ccccc2c(C)c2c1ccc1ccccc12
active: dose: 3.13 mg/kg/injection, schedule: Q01DX009 (ip), vehicle: saline with Tween-80 167 % of control | dose: 4.0 mg/kg/injection, schedule: Q01DX009 (ip), vehicle: saline with Tween-80 163 % of control | dose: 6.2 mg/kg/injection, schedule: Q01DX009 (ip), vehicle: saline with Tween-80 163 % of control | dose: 6.25 mg/kg/injection, schedule: Q01DX009 (ip), vehicle: saline with Tween-80 180 % of control and 184 % of control | [7] 175 % of control
inactive: dose: 9.3 mg/kg/injection, schedule: Q01DX009 (ip), vehicle: saline with Tween-80 109 % of control | dose: 12.5 mg/kg/injection, schedule: Q04DX003 (ip), vehicle: other 104 % of control | [8] 98 % of control and 100 % of control and 116 % of control | dose: 25.0 mg/kg/injection, schedule: Q04DX003 (ip), vehicle: other 116 % of control | [9] 100 % of control | dose: 50.0 mg/kg/injection, schedule: Q04DX003 (ip), vehicle: other 116 % of control | dose: 100.0 mg/kg/injection, schedule: Q04DX003 (ip), vehicle: other 111 % of control

CC(C)(c1ccccc1)c1ccc(O)cc1
inactive: [8] 100 % of control | [9] 100 % of control | [4] 100 % of control | [13] 90 % of control

COc1cc(C)c(/C(=N/O)n2nnc(-c3ccccc3)n2)c(C)c1
inactive: dose: 15.0 mg/kg/injection, schedule: Q01DX005 (ip), vehicle: saline with Tween-80 98 % of control | dose: 30.0 mg/kg/injection, schedule: Q01DX005 (ip), vehicle: saline with Tween-80 100 % of control | [10] 100 % of control and 91 % of control

CCOC(=O)C(CNc1ccc(O)cc1)NC(=O)c1ccccc1 (stereo not given)
inactive: dose: 50.0 mg/kg/injection, schedule: Q01DX009 (ip), vehicle: saline 101 % of control | [4] 94 % of control | dose: 100.0 mg/kg/injection, schedule: Q01DX009 (ip), vehicle: saline 103 % of control | [5] 94 % of control | dose: 200.0 mg/kg/injection, schedule: Q01DX009 (ip), vehicle: saline 102 % of control | [6] 94 % of control | dose: 400.0 mg/kg/injection, schedule: Q01DX009 (ip), vehicle: saline 101 % of control

COc1cccc2c1C(=O)c1c(O)c3c(c(O)c1C2=O)C[C@@](O)(C(C)=O)CC3OC1CC(NC2CC(=O)N(c3ccccc3)C2=O)C(O)C(C)O1 (stereo not given in full)
inactive: dose: 6.25 mg/kg/injection, schedule: Q04DX003 (ip), vehicle: water 108 % of control | dose: 12.5 mg/kg/injection, schedule: Q04DX003 (ip), vehicle: water 103 % of control | dose: 25.0 mg/kg/injection, schedule: Q04DX003 (ip), vehicle: water 103 % of control | dose: 50.0 mg/kg/injection, schedule: Q04DX003 (ip), vehicle: water 108 % of control

Cc1coc2c1C[C@@]1(C)[C@H](C2)C(=O)CC[C@@H]1C
inactive: dose: 37.5 mg/kg/injection, schedule: Q01DX009 (ip), vehicle: Klucel (hydroxypropylcellulose) (HPC) 105 % of control

CCCCC1=C(O)c2ccccc2C(=NC(CO)(CO)CO)C1=O
inactive: [15] 103 % of control | [16] 110 % of control | [17] 100 % of control

COc1ccccc1/C=C/C(=O)c1ccccc1
inactive: [9] 96 % of control | [4] 94 % of control | [5] 96 % of control

COc1cccc(C)c1C(O)CC1CCCN1 (stereo not given)
inactive: dose: 50.0 mg/kg/injection, schedule: Q01DX009 (ip), vehicle: Klucel (hydroxypropylcellulose) (HPC) 106 % of control | dose: 100.0 mg/kg/injection, schedule: Q01DX009 (ip), vehicle: Klucel (hydroxypropylcellulose) (HPC) 102 % of control

O=C(CC(O)(C(F)(F)F)C(F)(F)F)c1ccco1
inactive: dose: 33.0 mg/kg/injection, schedule: Q01DX009 (ip), vehicle: saline with Tween-80 110 % of control

CC(c1ccccc1)C1(C)NC(=O)NC1=O (stereo not given)
inactive: [13] 97 % of control | [14] 101 % of control

O=C(CCCCC(=O)N/N=C/c1ccco1)N/N=C/c1ccco1
inactive: [10] 99 % of control | [11] 94 % of control | [12] 91 % of control
